This note sets out measurements from patent US6531305B1, “Sperm associated protein kinase polypeptides, corresponding nucleic acids, and methods of use” (University of Massachusetts, priority 1998, dated 2003).

Holding throughout (experiment): protein kinase blot: kinases renatured on the blot, labeling with [γ-32P]ATP
Type in all cases: biochemical

For test [1], the system named is other putative kinase bands of demembranated sperm. The following applies: demembranated ram sperm. The protocol: (§1) Ejaculated sperm were -collected and washed and demembranated as described in San Agustin et al., Cell Motl. Cytoskel., 24:264-73, 1993. Samples of demembranated sperm were dissolved in SDS-PAGE sample buffer (10% glycerol, 3% SDS, 0.03% bromphenol blue, 50 mM DTT, 62.5 mM Tris-HCl, pH 6.8), and then electrophoresed in a 1.5-mm thick gradient gel (5-15%, 12×14 cm). Protein kinases were renatured on the blot and incubated in the presence of [γ−^32P]ATP using a protocol adapted from Ferrell and Martin, Methods Enzymol., 200:430-35, 1991 and described in San Austin et al., Methods Cell Biol., 47:135-40, 1995. Under these condition, bound kinases phosphorylated themselves or the blocking reagent. In some experiments, 1% poly(Glu,Tyr) 4:1, a tyrosine kinase substrate, was used as blocking solution in place of 5% BSA. […] Two prominent bands at ˜Mr 40,000 and 39,000 migrated slightly faster than porcine C (41 kDa). To determine if either of these was Cs, the incubation with [γ−^32P]ATP was carried out in the presence of PKI(5-24), a potent inhibitor of C, including ram Cs, activity. […] Labeling of the other bands was not affected by PKI(5-24).

For test [2], the target named is T1, ~Mr 40,000 band from sperm (Cs) (Ovis aries, UniProt Q9MZD9).
T1 construct: Samples of demembranated sperm were dissolved in SDS-PAGE sample buffer; from tissue; host or cells: ejaculated, demembranated ram sperm
The following applies: demembranated ram sperm. As to the method:
as §1

In test [3] the target is porcine C (Sus scrofa, UniProt P36887). As to the method:
as §1

Take PKI(5-24): the “labeling of the other bands with [γ-32P]ATP in the presence of inhibitor” value in test [1] was “not affected”. Also, the “labeling of the ~Mr 40,000 band from sperm with [γ-32P]ATP in the presence of inhibitor” value in test [2] was “completely and specifically blocked”. For the same substance, the “labeling of porcine C with [γ-32P]ATP in the presence of inhibitor” value in test [3] was “completely and specifically blocked”.
